We go through 21 compounds from PubChem BioAssay (NCI).

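The compound was tested at five concentrations on cells cultured in 96-well plates, with a 48-hour exposure period. GI50 = concentration required for 50% inhibition of growth. Definition used: TGI = concentration required for complete inhibition of growth.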 A value given as a limit tells only on which side of the number the result lay.

Test systems include A498 renal; IGROV1 ovarian; NCI-H226 lung; NCI-H23 lung; NCI/ADR-RES ovarian; SK-MEL-5 melanoma; SN12C renal; SNB-75 CNS; T-47D breast; KM12 colon.
Holding throughout (test): DTP human tumour cell line panel, 48 h

On to `O=C1C=Cc2c(Cl)sc(Cl)c21`, for which the concentration for total growth inhibition (TGI) in the assay on A498 renal came out at 16.1 µM; in the assay with IGROV1 ovarian, 3.09 µM; in the assay with NCI-H226 lung it was 16.1 µM; in the assay on NCI-H23 lung, 5.68 µM; with NCI/ADR-RES ovarian it was 5.32 µM; in the assay with SK-MEL-5 melanoma, 8.09 µM. Besides, the TGI with SN12C renal was greater than 100 µM; in the assay with SNB-75 CNS, 13.1 µM; in the assay on T-47D breast it was greater than 22.7 µM.

Consider `N#CCCNCCN(CCN(C(=O)Nc1ccccc1)c1ccccc1)C(=O)Nc1ccccc1`, for which the TGI in the assay with A498 renal is greater than 100 µM; in the assay with IGROV1 ovarian it was greater than 100 µM; with NCI-H226 lung, greater than 100 µM; in the assay with NCI-H23 lung, greater than 100 µM; in the assay with NCI/ADR-RES ovarian, greater than 100 µM; in the assay with SK-MEL-5 melanoma it was 45 µM. The TGI in the assay with SN12C renal, in the assay with SNB-75 CNS and in the assay with T-47D breast was greater than 100 µM in each case.

For `CCSSCS(C)(=O)=O`, the concentration for total growth inhibition (TGI) is 96.2 µM with A498 renal; greater than 100 µM in the assay with KM12 colon; 96.4 µM in the assay on NCI-H226 lung; 98 µM in the assay with NCI-H23 lung; 83.8 µM in the assay on NCI/ADR-RES ovarian; greater than 100 µM with SK-MEL-5 melanoma. Further, the values for the total growth inhibition concentration (TGI) in the assay on SN12C renal, in the assay on SNB-75 CNS and with T-47D breast were 67.8 µM, 72.6 µM and greater than 100 µM, respectively.

Consider `COc1cc2c(cc1OC)C1CN3C(=O)CCC3C(O)C1c1cc(OC)c(OC)cc1-2` (configuration not stated), for which the TGI in the assay with A498 renal, with IGROV1 ovarian, with KM12 colon, in the assay with NCI-H23 lung, in the assay with NCI/ADR-RES ovarian and with SK-MEL-5 melanoma was greater than 100 µM each time. The concentration for total growth inhibition (TGI) in the assay on SN12C renal, in the assay on SNB-75 CNS and in the assay on T-47D breast was greater than 100 µM in each case.

On to `CN(Cc1c2ccccc2cc2ccccc12)S(=O)(=O)c1ccc(-c2c3nc(c(-c4ccc(S(=O)(=O)N(C)Cc5c6ccccc6cc6ccccc56)cc4)c4ccc([nH]4)c(-c4ccc(S(=O)(=O)N(C)Cc5c6ccccc6cc6ccccc56)cc4)c4nc(c(-c5ccc(S(=O)(=O)N(C)Cc6c7ccccc7cc7ccccc67)cc5)c5ccc2[nH]5)C=C4)C=C3)cc1`, for which the TGI in the assay with A498 renal, with IGROV1 ovarian, with KM12 colon, in the assay on NCI-H23 lung, in the assay with NCI/ADR-RES ovarian and in the assay with SK-MEL-5 melanoma was greater than 100 µM throughout. For the same compound, the TGI in the assay on SN12C renal is greater than 100 µM; with SNB-75 CNS, 56.8 µM; in the assay on T-47D breast, greater than 100 µM.

In the case of `Cc1cccc2c1C(=O)C1(Cc3ccccc3C1=O)C2` (configuration not stated), the TGI in the assay with A498 renal, in the assay on IGROV1 ovarian, in the assay on NCI-H226 lung, in the assay on NCI-H23 lung, in the assay on NCI/ADR-RES ovarian and in the assay on SK-MEL-5 melanoma was greater than 100 µM throughout. Besides, the TGI with SN12C renal, with SNB-75 CNS and in the assay on T-47D breast was greater than 100 µM in each case.

As for `COc1cc(Oc2nc3ccccc3nc2C(=O)O)cc(OC)c1OC`, the TGI in the assay on A498 renal, in the assay with IGROV1 ovarian, in the assay with KM12 colon, in the assay with NCI-H226 lung, in the assay on NCI-H23 lung and with NCI/ADR-RES ovarian was greater than 100 µM in each case. Further, the TGI in the assay with SK-MEL-5 melanoma, in the assay on SNB-75 CNS and in the assay with T-47D breast was greater than 100 µM throughout.

In the case of `Nc1ccc2c(c1)C1Oc3ccccc3CC1CO2` (configuration not stated), the TGI in the assay on A498 renal, in the assay with IGROV1 ovarian, with KM12 colon, in the assay with NCI-H226 lung, in the assay on NCI-H23 lung and in the assay on NCI/ADR-RES ovarian was greater than 100 µM each time. In addition, the TGI in the assay with SK-MEL-5 melanoma, in the assay with SN12C renal and with T-47D breast was greater than 100 µM in each case.

On to `CCOC(=O)c1c(SC(=O)c2cc(OC)c(OC)c(OC)c2)n(-c2ccccc2)c(=S)n(-c2ccccc2)c1=O`, for which the TGI in the assay on A498 renal, in the assay with IGROV1 ovarian, in the assay on KM12 colon, in the assay on NCI-H226 lung, with NCI-H23 lung and in the assay with NCI/ADR-RES ovarian was greater than 100 µM each time. Also, the TGI in the assay with SN12C renal, in the assay on SNB-75 CNS and with T-47D breast was greater than 100 µM each time.

Take `COC12C=C/C(=C(/C(=O)OCc3ccncn3)C(=O)CCCCCCCCC3(OC)C=C/C(=C(/C(=O)OCc4ccncn4)C(=O)CCCCCCCC1)O3)O2`: the 50% growth inhibitory concentration (GI50) in the assay with A498 renal was 252 nM; in the assay on IGROV1 ovarian, 418 nM; in the assay with KM12 colon, 227 nM; in the assay on NCI-H23 lung, 293 nM; with NCI/ADR-RES ovarian, 417 nM; with SN12C renal, 297 nM. In addition, the GI50 was 1520 nM with SNB-75 CNS and 280 nM with T-47D breast. In addition, the TGI with A498 renal was 0.833 µM; in the assay with IGROV1 ovarian, 4.46 µM; in the assay on KM12 colon, 0.499 µM; with NCI-H23 lung it was 0.944 µM; in the assay with NCI/ADR-RES ovarian it was 12.6 µM; in the assay with SN12C renal, 1.12 µM. The TGI in the assay with SNB-75 CNS came out at 17.7 µM; in the assay on T-47D breast it was 25.7 µM.

On to `Cc1cc(O)c(C(C)C)cc1NC(=O)Nc1cccc2ccccc12`, for which the concentration for total growth inhibition (TGI) worked out at 26.5 µM with A498 renal; 37.7 µM with IGROV1 ovarian; 38.8 µM in the assay with KM12 colon; 46.7 µM in the assay with NCI-H226 lung; 46.3 µM in the assay on NCI-H23 lung; 76.2 µM in the assay on NCI/ADR-RES ovarian. The TGI with SK-MEL-5 melanoma was 27.4 µM; with SN12C renal, 40.5 µM; in the assay on T-47D breast it was greater than 100 µM.

Regarding `CCNc1nc(N)c(C(=O)c2ccc(Cl)cc2)s1`, the concentration for total growth inhibition (TGI) is 70.3 µM in the assay with A498 renal; greater than 100 µM with IGROV1 ovarian; greater than 100 µM with KM12 colon; 70.6 µM with NCI-H226 lung; greater than 100 µM in the assay on NCI-H23 lung; greater than 100 µM in the assay on NCI/ADR-RES ovarian. Moreover, the TGI in the assay on SK-MEL-5 melanoma, in the assay with SN12C renal and with T-47D breast was greater than 100 µM in each case.

For the compound `O=C1NN=C(c2ccc(Cl)cc2)CC1C1C(=O)N(c2ccccc2)N=C1c1ccccc1` (configuration not stated), the TGI with A498 renal is 84.4 µM; in the assay with IGROV1 ovarian it was greater than 100 µM; in the assay on KM12 colon, greater than 100 µM; with NCI-H226 lung it was 91.8 µM; in the assay on NCI-H23 lung it was 62.8 µM; in the assay on NCI/ADR-RES ovarian, greater than 100 µM. Also, the TGI with SN12C renal, in the assay on SNB-75 CNS and in the assay with T-47D breast was greater than 100 µM each time.

Take `CC(=O)Nc1ccc(S(=O)(=O)Nc2nnc(S(N)(=O)=O)s2)cc1`: the TGI in the assay on A498 renal, with KM12 colon, with NCI-H226 lung, in the assay on NCI-H23 lung, in the assay with NCI/ADR-RES ovarian and with SNB-75 CNS was greater than 100 µM each time. The TGI with T-47D breast is greater than 100 µM.

Consider `CCCSc1cc(Cl)c(C)cc1S(=O)(=O)n1ccnc1OCCCN(C)C`, for which the concentration for total growth inhibition (TGI) in the assay on A498 renal, in the assay with IGROV1 ovarian, in the assay with KM12 colon, with NCI-H226 lung, in the assay on NCI-H23 lung and in the assay on NCI/ADR-RES ovarian was greater than 100 µM throughout. Moreover, the TGI in the assay with SK-MEL-5 melanoma, in the assay on SN12C renal and in the assay with T-47D breast was greater than 100 µM throughout.

For `O=C(CCc1cccc(O)c1)NCCc1cccc(O)c1`, the TGI in the assay on A498 renal, with IGROV1 ovarian, in the assay with KM12 colon, with NCI-H226 lung, in the assay on NCI-H23 lung and with NCI/ADR-RES ovarian was greater than 100 µM throughout. Also, the TGI in the assay with SK-MEL-5 melanoma, with SN12C renal and in the assay with T-47D breast was greater than 100 µM each time.

For the compound `CCSc1ncnc2c(C3OC(CO)C(O)C3O)nsc12` (configuration not stated), the TGI with A498 renal, in the assay with IGROV1 ovarian, with NCI-H226 lung, with NCI/ADR-RES ovarian, in the assay with SK-MEL-5 melanoma and in the assay on SN12C renal was greater than 100 µM each time. The TGI in the assay with SNB-75 CNS and in the assay on T-47D breast was greater than 100 µM throughout.

For `O=C(O)CC(NC(=O)Nc1ccc([N+](=O)[O-])cc1)C(=O)Nc1ccc([N+](=O)[O-])cc1` (configuration not stated), the TGI with A498 renal, in the assay with IGROV1 ovarian, in the assay with KM12 colon, with NCI-H226 lung, in the assay with NCI-H23 lung and in the assay on NCI/ADR-RES ovarian was greater than 100 µM each time. Also, the TGI with SK-MEL-5 melanoma, in the assay with SNB-75 CNS and in the assay with T-47D breast was greater than 100 µM throughout.

On to `O=[N+]([O-])C(/C(Cl)=C(/Cl)N1CCOCC1)=C1\NCCO1`, for which the TGI with A498 renal, with KM12 colon, in the assay on NCI-H226 lung, in the assay with NCI-H23 lung, in the assay with NCI/ADR-RES ovarian and in the assay with SN12C renal was greater than 100 µM in each case. Moreover, the TGI with SNB-75 CNS and with T-47D breast was greater than 100 µM each time.

Turning to `COc1ccc2oc(S(=O)(=O)N3CC(CCl)c4ccc([N+](=O)[O-])cc43)cc2c1` (configuration not stated), the TGI was 2.82 µM in the assay on A498 renal; 0.418 µM in the assay with KM12 colon; 1.43 µM in the assay on NCI-H226 lung; greater than 24 µM in the assay with NCI-H23 lung; 4.03 µM in the assay with NCI/ADR-RES ovarian; 5.45 µM with SK-MEL-5 melanoma. For the same compound, the TGI in the assay on SN12C renal is 14 µM; in the assay with SNB-75 CNS it was greater than 36.8 µM; with T-47D breast, 79.8 µM.

Consider `CC(C)CC(=O)NC(Nc1ccc(S(=O)(=O)Nc2ncccn2)cc1)(C(F)(F)F)C(F)(F)F`, for which the TGI in the assay with IGROV1 ovarian, in the assay with KM12 colon, with NCI-H226 lung, with NCI-H23 lung, in the assay on NCI/ADR-RES ovarian and with SK-MEL-5 melanoma was greater than 100 µM throughout. The TGI in the assay on SN12C renal, in the assay on SNB-75 CNS and in the assay on T-47D breast was greater than 100 µM throughout.
